Measured values published in PubChem BioAssay AID2060618 (Molecular Pharmacology Branch, DTP, NCI, 2025).

System: 454973-116-R2-J3-PDC spheroids, percent test/control viability
Test: Anticancer human tumor 454973-116-R2-J3-PDC patient-derived pancreatic carcinoma cell line growth inhibition [CLK]
Conditions: spheroids with HUVEC and MSC; for IC50: curve of first compound; for viability, T/C: stronger effect = lower value
Text: A high-throughput screen of multi-cell type tumor spheroids was designed to identify active combinations of […] and targeted small molecules. Complex spheroids include a stromal component modeled by human endothelial cells (HUVEC) and fibroblasts modeled by human mesenchymal stem cells (MSCs). The concentration ranges selected for each drug and investigational agent were based upon clinically achievable concentrations if the clinical Cmax of the agent was known.
Compounds. The drugs and investigational agents: cirtuvivint (SM08502; NSC835563), CC-671 (NSC850746), vemurafenib (NSC761431), tapotoclax (NSC804041), sotorasib (NSC818433), adagrasib (NSC831453), MRTX-1133 (NSC836407), BAY2416964 (NSC825713), copanlisib (NSC816437), inavolisib (NSC800729), abemaciclib (NSC768073), osimertinib (NSC779217), entinostat (NSC756642), eltanexor (KPT-8602, NSC794443), venetoclax (NSC766270), ceralasertib (NSC777638), bortezomib (NSC756655), olaparib (NSC753686), talazoparib (NSC767125), alisertib (NSC759677), peposertib (NSC802822), gemcitabine (NSC613327), 5-fluorouracil (NSC19893), SN-38 (NSC673596), oxaliplatin (NSC266046), paclitaxel (NSC125973), and doxorubicin (NSC123127), were obtained from the National Cancer Institute (NCI) Developmental Therapeutics Program Chemical Repository. The FDA-approved anticancer drug set is available from the Developmental Therapeutics Program at https://dtp.cancer.gov/organization/dscb/obtaining/available plates.htm. […] The stock solutions were prepared in dimethyl sulfoxide (DMSO, Sigma-Aldrich, St. Louis, MO, cat. D2650), except for the platinum complexes which were prepared in saline (Quality Biological, Gaithersburg, MD, cat. 114-055-101), at 800-fold the tested concentration and stored at -70 degrees C prior to their use. All drugs and investigational agents were tested over a range starting from a high concentration at or near the clinical Cmax and decreasing in half-log increments. If the clinical Cmax for an agent had not been determined, the highest concentration tested was 10 microM.
Cell Culture. All cells were maintained in an incubator at 37 degrees C and 5% CO2 with 95% humidity. The PDC lines were cultured according to standard operating procedures established by the NCI PDMR. Briefly, all PDCs were thawed and cultured in Matrigel-coated flasks prepared with a working solution of 1X Ham's F-12 nutrient mix, without supplementation (Invitrogen, Waltham, MA, cat. 11765054), 100 U/mL penicillin-streptomycin (Invitrogen, cat. 15140122), and 2.5% Matrigel (Corning Inc., Corning, NY, cat. 354248) for the first three passages. The 947758-054-R-J2-PDC line was cultured in 6B/Colon 1A media, which includes advanced DMEM/F-12 (Thermo Fisher Scientific, cat. 12634028), 10 mM HEPES (Thermo Fisher Scientific, cat. 15630080), 1X GlutaMAX supplement (Thermo Fisher Scientific, cat. 35050061), 0.1 mg/mL primocin (InvivoGen, cat. ant-pm-2), 10% defined fetal bovine serum, heat inactivated (HyClone Laboratories Inc., cat. SH30070.03HI), 1.25 mM N-Acetyl-L-cysteine (Sigma-Aldrich, cat. A9165), 10 mM nicotinamide (Sigma-Aldrich, cat. N0636), 1X B-27 supplement (Thermo Fisher Scientific, cat. 17504044), 1X N-2 supplement (Thermo Fisher Scientific, cat. 17502048), and 10 microM Y-27632 dihydrochloride (Tocris Bioscience, cat. 1254). The 876862-298-R-J1-PDC was cultured in 6E media, which includes all 6B/Colon 1A media components plus 50% L-WRN conditioned media (ATCC, cat. CRL-3276), 50 ng/mL recombinant human EGF recombinant protein (hEGF; Thermo Fisher Scientific, cat. PHG0311), 10 ng/mL recombinant human fibroblast growth factor 10 (hGFG-10; PeproTech, cat. 100-26), 1 ng/mL recombinant human fibroblast growth factor 2 (hFGF-2; PeproTech, cat. 100-18B), and 1 µM prostaglandin E2 (PGE2; Tocris, cat. 2296). The 227483-062-R1-J1-PDC line was cultured in Panc media, containing all 6E components except hFGF-2, with the addition of 500 nM SB-431542 (Selleckchem, cat. S1067) and 10 nM gastrin (Tocris, cat. 3006). […]
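Note: spheroids exposed to compounds for 7 days before readout.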

**Q.** What does the source list for `COc1cccc2c1C(=O)c1c(O)c3c(c(O)c1C2=O)CC(O)(C(=O)CO)CC3OC1CC(N)C(O)C(C)O1` (configuration not stated) + CN1CCN(c2cc(C(=O)Nc3cc4cc(-c5cnn(C)c5)ccc4cn3)ccn2)CC1?
**A.** IC50 (second compound 0.0316 µM): < 31.6 nM; IC50 (second compound 0.1 µM): < 31.6 nM; IC50 (second compound 0.316 µM): < 31.6 nM; IC50 (second compound 1 µM): < 31.6 nM; IC50 (second compound 3.16 µM): < 31.6 nM; IC50 (second compound 10 µM): < 31.6 nM; viability, T/C (second compound 0.0316 µM, first compound 0.0316 µM): 40.8%; viability, T/C (second compound 0.0316 µM, first compound 0.1 µM): 27.2%; viability, T/C (second compound 0.0316 µM, first compound 0.316 µM): 21%; viability, T/C (second compound 0.0316 µM, first compound 1 µM): 8.81%; viability, T/C (second compound 0.0316 µM, first compound 3.16 µM): 0.25%; viability, T/C (second compound 0.0316 µM, first compound 10 µM): 0.19%; viability, T/C (second compound 0.1 µM, first compound 0.0316 µM): 29.2%; viability, T/C (second compound 0.1 µM, first compound 0.1 µM): 26.5%; viability, T/C (second compound 0.1 µM, first compound 0.316 µM): 17.9%; viability, T/C (second compound 0.1 µM, first compound 1 µM): 3.51%; viability, T/C (second compound 0.1 µM, first compound 3.16 µM): 0.16%; viability, T/C (second compound 0.1 µM, first compound 10 µM): 0.16%; viability, T/C (second compound 0.316 µM, first compound 0.0316 µM): 1.16%; viability, T/C (second compound 0.316 µM, first compound 0.1 µM): 1.16%; viability, T/C (second compound 0.316 µM, first compound 0.316 µM): 1.46%; viability, T/C (second compound 0.316 µM, first compound 1 µM): 0.14%; viability, T/C (second compound 0.316 µM, first compound 3.16 µM): 0.33%; viability, T/C (second compound 0.316 µM, first compound 10 µM): 0.12%; viability, T/C (second compound 1 µM, first compound 0.0316 µM): 0.11%; viability, T/C (second compound 1 µM, first compound 0.1 µM): 0.15%; viability, T/C (second compound 1 µM, first compound 0.316 µM): 1.47%; viability, T/C (second compound 1 µM, first compound 1 µM): 0.11%; viability, T/C (second compound 1 µM, first compound 3.16 µM): 0.12%; viability, T/C (second compound 1 µM, first compound 10 µM): 0.18%; viability, T/C (second compound 3.16 µM, first compound 0.0316 µM): 0.08%; viability, T/C (second compound 3.16 µM, first compound 0.1 µM): 0.45%; viability, T/C (second compound 3.16 µM, first compound 0.316 µM): 0.15%; viability, T/C (second compound 3.16 µM, first compound 1 µM): 0.15%; viability, T/C (second compound 3.16 µM, first compound 3.16 µM): 0.17%; viability, T/C (second compound 3.16 µM, first compound 10 µM): 0.1%; viability, T/C (second compound 10 µM, first compound 0.0316 µM): 0.12%; viability, T/C (second compound 10 µM, first compound 0.1 µM): 0.43%; viability, T/C (second compound 10 µM, first compound 0.316 µM): 0.13%; viability, T/C (second compound 10 µM, first compound 1 µM): 0.12%; viability, T/C (second compound 10 µM, first compound 3.16 µM): 0.14%; viability, T/C (second compound 10 µM, first compound 10 µM): 0.11%
